Blank lines part the entries; values can stand above or below the molecule they belong to.
Tested on: 354836-022-R-J1-PDC multicell spheroid viability
Assay: Anticancer human tumor 354836-022-R-J1-PDC patient-derived head and neck squamous cell carcinoma cell line growth inhibition [PI3K]
Conditions: for viability, T/C: stronger effect = lower value
Method in brief: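 Agents were dosed from a top concentration near clinical Cmax (otherwise 10 microM) in half-log decrements, alone or combined with PI3K inhibitors. The spheroids contain tumor cells plus endothelial (HUVEC) and MSC stroma; viability is measured.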

[1] = curve of first compound, second compound 0.0316 µM
[2] = curve of first compound, second compound 0.1 µM
[3] = curve of first compound, second compound 0.316 µM
[4] = curve of first compound, second compound 1 µM
[5] = curve of first compound, second compound 3.16 µM
[6] = curve of first compound, second compound 10 µM
[7] = second compound 0.0316 µM, first compound 0.0316 µM
[8] = second compound 0.0316 µM, first compound 0.1 µM
[9] = second compound 0.1 µM, first compound 0.0316 µM
[10] = second compound 0.1 µM, first compound 0.1 µM
[11] = second compound 0.316 µM, first compound 0.0316 µM
[12] = second compound 0.316 µM, first compound 0.1 µM
[13] = second compound 1 µM, first compound 0.0316 µM
[14] = second compound 1 µM, first compound 0.1 µM
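Note: spheroids exposed to agents for seven days before the viability read.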

- IC50 [1]: > 3000 nM
- IC50 [2]: 2650 nM
- IC50 [3]: 2670 nM
- IC50 [4]: > 3000 nM
- IC50 [5]: > 3000 nM
- IC50 [6]: > 3000 nM
SMILES: Cn1cnc2c(F)c(Nc3ccc(Br)cc3Cl)c(C(=O)NOCCO)cc21 + CC(Nc1ncnc2nc[nH]c12)c1cc2cccc(Cl)c2c(=O)n1-c1ccccc1
- viability, T/C (second compound 0.0316 µM, first compound 0.00949 µM): 94.3%
- viability, T/C (second compound 0.0316 µM, first compound 0.03 µM): 90.4%
- viability, T/C (second compound 0.0316 µM, first compound 0.0949 µM): 87.4%
- viability, T/C (second compound 0.0316 µM, first compound 0.3 µM): 71.9%
- viability, T/C (second compound 0.0316 µM, first compound 0.949 µM): 69.4%
- viability, T/C (second compound 0.0316 µM, first compound 3 µM): 49.4%
- viability, T/C (second compound 0.1 µM, first compound 0.00949 µM): 89.9%
- viability, T/C (second compound 0.1 µM, first compound 0.03 µM): 80.4%
- viability, T/C (second compound 0.1 µM, first compound 0.0949 µM): 70.3%
- viability, T/C (second compound 0.1 µM, first compound 0.3 µM): 81.3%
- viability, T/C (second compound 0.1 µM, first compound 0.949 µM): 64.6%
- viability, T/C (second compound 0.1 µM, first compound 3 µM): 47.7%
- viability, T/C (second compound 0.316 µM, first compound 0.00949 µM): 89.7%
- viability, T/C (second compound 0.316 µM, first compound 0.03 µM): 83.9%
- viability, T/C (second compound 0.316 µM, first compound 0.0949 µM): 94.2%
- viability, T/C (second compound 0.316 µM, first compound 0.3 µM): 72.1%
- viability, T/C (second compound 0.316 µM, first compound 0.949 µM): 74.8%
- viability, T/C (second compound 0.316 µM, first compound 3 µM): 46.6%
- viability, T/C (second compound 1 µM, first compound 0.00949 µM): 90.5%
- viability, T/C (second compound 1 µM, first compound 0.03 µM): 83.8%
- viability, T/C (second compound 1 µM, first compound 0.0949 µM): 79.6%
- viability, T/C (second compound 1 µM, first compound 0.3 µM): 81.2%
- viability, T/C (second compound 1 µM, first compound 0.949 µM): 74.5%
- viability, T/C (second compound 1 µM, first compound 3 µM): 55.6%
- viability, T/C (second compound 3.16 µM, first compound 0.00949 µM): 99.5%
- viability, T/C (second compound 3.16 µM, first compound 0.03 µM): 86.9%
- viability, T/C (second compound 3.16 µM, first compound 0.0949 µM): 71.1%
- viability, T/C (second compound 3.16 µM, first compound 0.3 µM): 88.8%
- viability, T/C (second compound 3.16 µM, first compound 0.949 µM): 81%
- viability, T/C (second compound 3.16 µM, first compound 3 µM): 63.5%
- viability, T/C (second compound 10 µM, first compound 0.00949 µM): 85.5%
- viability, T/C (second compound 10 µM, first compound 0.03 µM): 89.2%
- viability, T/C (second compound 10 µM, first compound 0.0949 µM): 87.1%
- viability, T/C (second compound 10 µM, first compound 0.3 µM): 77.1%
- viability, T/C (second compound 10 µM, first compound 0.949 µM): 68.2%
- viability, T/C (second compound 10 µM, first compound 3 µM): 54.8%

- IC50 (curve of first compound, second compound 0.00316 µM): 11.4 nM
- IC50 (curve of first compound, second compound 0.01 µM): 10.7 nM
- IC50 [1]: 9.09 nM
- IC50 [2]: < 0.316 nM
- IC50 [3]: < 0.316 nM
- IC50 [4]: < 0.316 nM
SMILES: CC(C)n1nc(-c2ccc3oc(N)nc3c2)c2c(N)ncnc21 + COc1c(OCCCN2CCOCC2)ccc2c3n(c(=NC(=O)c4cnc(N)nc4)nc12)CCN3
- viability, T/C (second compound 0.00316 µM, first compound 0.000316 µM): 103%
- viability, T/C (second compound 0.00316 µM, first compound 0.001 µM): 70.8%
- viability, T/C (second compound 0.00316 µM, first compound 0.00316 µM): 77.9%
- viability, T/C (second compound 0.00316 µM, first compound 0.01 µM): 50.9%
- viability, T/C (second compound 0.00316 µM, first compound 0.0316 µM): 33%
- viability, T/C (second compound 0.00316 µM, first compound 0.1 µM): 3.49%
- viability, T/C (second compound 0.01 µM, first compound 0.000316 µM): 93.3%
- viability, T/C (second compound 0.01 µM, first compound 0.001 µM): 86.8%
- viability, T/C (second compound 0.01 µM, first compound 0.00316 µM): 67.7%
- viability, T/C (second compound 0.01 µM, first compound 0.01 µM): 52.3%
- viability, T/C (second compound 0.01 µM, first compound 0.0316 µM): 28.3%
- viability, T/C (second compound 0.01 µM, first compound 0.1 µM): 3.55%
- viability, T/C (second compound 0.0316 µM, first compound 0.000316 µM): 67%
- viability, T/C (second compound 0.0316 µM, first compound 0.001 µM): 70.8%
- viability, T/C (second compound 0.0316 µM, first compound 0.00316 µM): 61.7%
- viability, T/C (second compound 0.0316 µM, first compound 0.01 µM): 49%
- viability, T/C [7]: 23.5%
- viability, T/C [8]: 2.77%
- viability, T/C (second compound 0.1 µM, first compound 0.000316 µM): 49%
- viability, T/C (second compound 0.1 µM, first compound 0.001 µM): 48.2%
- viability, T/C (second compound 0.1 µM, first compound 0.00316 µM): 36.4%
- viability, T/C (second compound 0.1 µM, first compound 0.01 µM): 27.4%
- viability, T/C [9]: 11.9%
- viability, T/C [10]: 2.07%
- viability, T/C (second compound 0.316 µM, first compound 0.000316 µM): 16.2%
- viability, T/C (second compound 0.316 µM, first compound 0.001 µM): 9.69%
- viability, T/C (second compound 0.316 µM, first compound 0.00316 µM): 8.47%
- viability, T/C (second compound 0.316 µM, first compound 0.01 µM): 10.1%
- viability, T/C [11]: 3.38%
- viability, T/C [12]: 0.76%
- viability, T/C (second compound 1 µM, first compound 0.000316 µM): 1.52%
- viability, T/C (second compound 1 µM, first compound 0.001 µM): 1.5%
- viability, T/C (second compound 1 µM, first compound 0.00316 µM): 1.64%
- viability, T/C (second compound 1 µM, first compound 0.01 µM): 1.22%
- viability, T/C [13]: 0.82%
- viability, T/C [14]: 0.62%

- IC50 [1]: 4530 nM
- IC50 [2]: 4080 nM
- IC50 [3]: 4270 nM
- IC50 [4]: 4310 nM
- IC50 [5]: 2740 nM
- IC50 [6]: < 31.6 nM
SMILES: CC1(C)CCC(CN2CCN(c3ccc(C(=O)NS(=O)(=O)c4ccc(NCC5CCOCC5)c([N+](=O)[O-])c4)c(Oc4cnc5[nH]ccc5c4)c3)CC2)=C(c2ccc(Cl)cc2)C1 + Cc1nc(NC(=O)N2CCCC2C(N)=O)sc1-c1ccnc(C(C)(C)C(F)(F)F)c1
- viability, T/C [7]: 99.3%
- viability, T/C [8]: 82.3%
- viability, T/C (second compound 0.0316 µM, first compound 0.316 µM): 94.3%
- viability, T/C (second compound 0.0316 µM, first compound 1 µM): 91.7%
- viability, T/C (second compound 0.0316 µM, first compound 3.16 µM): 70.1%
- viability, T/C (second compound 0.0316 µM, first compound 10 µM): 5.83%
- viability, T/C [9]: 109%
- viability, T/C [10]: 93%
- viability, T/C (second compound 0.1 µM, first compound 0.316 µM): 97.1%
- viability, T/C (second compound 0.1 µM, first compound 1 µM): 100%
- viability, T/C (second compound 0.1 µM, first compound 3.16 µM): 63%
- viability, T/C (second compound 0.1 µM, first compound 10 µM): 4.78%
- viability, T/C [11]: 99.7%
- viability, T/C [12]: 86.4%
- viability, T/C (second compound 0.316 µM, first compound 0.316 µM): 79.5%
- viability, T/C (second compound 0.316 µM, first compound 1 µM): 91.9%
- viability, T/C (second compound 0.316 µM, first compound 3.16 µM): 65.4%
- viability, T/C (second compound 0.316 µM, first compound 10 µM): 6.04%
- viability, T/C [13]: 83.7%
- viability, T/C [14]: 79.6%
- viability, T/C (second compound 1 µM, first compound 0.316 µM): 88.4%
- viability, T/C (second compound 1 µM, first compound 1 µM): 79.7%
- viability, T/C (second compound 1 µM, first compound 3.16 µM): 67%
- viability, T/C (second compound 1 µM, first compound 10 µM): 4.76%
- viability, T/C (second compound 3.16 µM, first compound 0.0316 µM): 68.3%
- viability, T/C (second compound 3.16 µM, first compound 0.1 µM): 66.5%
- viability, T/C (second compound 3.16 µM, first compound 0.316 µM): 72.1%
- viability, T/C (second compound 3.16 µM, first compound 1 µM): 60.8%
- viability, T/C (second compound 3.16 µM, first compound 3.16 µM): 48.8%
- viability, T/C (second compound 3.16 µM, first compound 10 µM): 4.11%
- viability, T/C (second compound 10 µM, first compound 0.0316 µM): 38.1%
- viability, T/C (second compound 10 µM, first compound 0.1 µM): 39.8%
- viability, T/C (second compound 10 µM, first compound 0.316 µM): 43.8%
- viability, T/C (second compound 10 µM, first compound 1 µM): 37.4%
- viability, T/C (second compound 10 µM, first compound 3.16 µM): 34.6%
- viability, T/C (second compound 10 µM, first compound 10 µM): 7.88%

- IC50 (curve of compound): > 10000 nM
SMILES: C[C@@H](NC(=O)c1ncnc(N)c1Cl)c1ncc(C(=O)Nc2cc(C(F)(F)F)c(Cl)cn2)s1
- viability, T/C (compound 0.0316 µM): 105% [middle of 4 runs]
- viability, T/C (compound 0.1 µM): 99.9% [middle of 4 runs]
- viability, T/C (compound 0.316 µM): 99.3% [middle of 4 runs]
- viability, T/C (compound 1 µM): 98.5% [middle of 4 runs]
- viability, T/C (compound 3.16 µM): 105% [middle of 4 runs]
- viability, T/C (compound 10 µM): 70.9% [middle of 4 runs]

Source: PubChem BioAssay AID1963981 (Molecular Pharmacology Branch, DTP, NCI, 2024)
